The record followed here is PubChem BioAssay (NCI).

The experiment deals with MDA-MB-468 breast. The experiment can be described thus: NCI-60 cell line screen, 48 h.

Where “and” joins values, the source holds several entries; their conditions need not be identical. Equal entries are not always repeated.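 Dose response: 5 concentrations. Exposure: 48 h. Format: 96-well plates. Endpoint: linear interpolation; highest concentration if not reached. The concentration for 50% growth inhibition is given as GI50. TGI is the concentration that stops growth completely.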

Turning to `NNCCc1ccc(NC(=O)CCCc2ccc(C(=O)Nc3ccccc3N)cc2)cc1`, the GI50 was 10900 nM and the TGI was determined as 40100 nM.
For `Nc1cc2c(cc1Br)[nH]c(=O)c1ccccc12` the same measures were 1210 nM and 5410 nM.
For `Cc1cc(N/N=C/c2ccccn2)nc2ccccc12`, the GI50 was 252 nM and the TGI was determined as 2600 nM.
Turning to `C#CCOc1cccc(Nc2ncnc3c(NC(=O)C=C)cccc23)c1`, the GI50 is 4910 nM and the TGI turned out to be 25400 nM.
`O=C(NNc1nc2cc(F)cc(F)c2n2cccc12)c1ncccn1`: the GI50 is 590 nM and the TGI was found to be 3790 nM.
For `CC(C)c1[nH]nc2c1N=C(c1ccccc1Cl)c1cc([N+](=O)[O-])ccc1N2` the same measures were 2930 nM and 15700 nM.
The like results for `C=CC(=O)N1CN(C(=O)C=C)CN(C(=O)C=C)C1` were, in that order, 1460 nM and 3400 nM.
For `N=C(N)c1ccc(-c2ccc(-c3cccs3)s2)cc1` the same measures were 56.4 nM and 1150 nM.
With `CO[C@H]1Nc2c(ccc(C)c2O)C(=O)N2C=C(/C=C/C(N)=O)C[C@@H]12`, the GI50 is 20.8 nM and the TGI came to 46.5 nM.
For `Cc1cn(-c2cc(C(=O)Nc3cccc(-n4ccc5c(NC(=O)c6ccccc6)nccc54)c3)cc(C(F)(F)F)c2)cn1` the same measures were 229 nM and 1040 nM.
The like results for `COc1ccc(-c2cnnn2-c2nonc2-n2cccc2)cc1` were, in that order, 130 nM and 721 nM.
`CC1(C)CN=C(NN=C(/C=C/c2ccc(C(F)(F)F)cc2)/C=C/c2ccc(C(F)(F)F)cc2)NC1`: the GI50 was 1280 nM and the TGI turned out to be 2720 nM.
For `COc1ccc(-c2ccc3c(N4CCOC[C@@H]4C)nc(N4CCOC[C@@H]4C)nc3n2)cc1CO`, the GI50 was 5.33 nM and 18 nM; the TGI is 19.9 nM and 195 nM.
On to `OC(c1cc(-c2ccc(C(F)(F)F)cc2)nc(C(F)(F)F)c1)C1CCCCN1` (configuration not stated), for which the GI50 was 1610 nM and 1500 nM; the TGI is 3330 nM and 2830 nM.
`COc1ccc(-c2nc(-c3cc(OC)cc(OC)c3)[nH]c2-c2ccc(OC)cc2)cc1`: the GI50 is 2780 nM and the TGI was over 100000 nM.
As for `N[C@H](CCC(=O)N[C@@H](Cc1c[nH]c2ccccc12)C(=O)O)C(=O)O`, the GI50 was over 100000 nM and the TGI was over 100000 nM.
As to `Cc1ccc(OCCOCCOCCOCCOc2ccc(C)n(O)c2=S)c(=S)n1O`, the GI50 is under 17.4 nM and the TGI amounted to 5330 nM.
For `N#CCCN1C/C(=C/c2ccc(Br)cc2)C(=O)/C(=C/c2ccc(Br)cc2)C1` the same measures were 1500 nM and 3620 nM.
Turning to `COc1ccc(-c2nn(-c3cccc(Cl)c3)cc2-c2cc(-c3ccccc3)[nH]c(=O)c2C#N)cc1`, the GI50 is 1550 nM and the TGI stood at 7510 nM.
Take `Nc1cc(Br)c(-c2nnc(CCC(=O)c3nc4ccccc4[nH]3)o2)c(Br)c1`: the GI50 is 1930 nM and the TGI was 6970 nM.
Regarding `Cn1cc(-c2csc(-c3cn(CCCCN4CCCCC4)c4ccccc34)n2)c2cccnc21`, the GI50 was 1610 nM and the TGI came out at 3290 nM.
Turning to `CN(C)C(=S)SSC(=S)N(C)C`, the GI50 was 17100 nM and the TGI was determined as 37500 nM.
On to `Cc1cc(Nc2nc(-c3cn(-c4ccc(Cl)cc4)nn3)nc3ccccc23)n[nH]1`, for which the GI50 is 10400 nM and the TGI is 30500 nM.
For `COc1cc(/C=C\c2cc(OC)c(OC)c(OC)c2)cc(N/C=C\C(=O)c2c[nH]c3ccccc23)c1OC` the same measures were 1280 nM and 3660 nM.
For `COc1ccc(/C(C)=C(\c2ccc(OCCN3CCCCCC3)cc2)c2ccc(OC(=O)C3CCCCC3)cc2)cc1` the same measures were 737 nM and 2840 nM.
For `O=C(NCc1ccc(Cn2c(=O)sn(-c3ccccc3)c2=O)cc1)OCc1ccc2cccc(O)c2n1` the same measures were 552 nM and 2140 nM.
Turning to `O=C(/C(=C\c1c(-c2ccccc2)[nH]c2ccccc12)S(=O)(=O)c1ccccc1)c1ccccc1`, the GI50 was 4180 nM and the TGI was over 100000 nM.
Take `CCN(CC)CCCCCCNc1cccc2cc(Br)cnc12`: the GI50 is 1960 nM and the TGI was found to be 4460 nM.
The like results for `COc1cc2c(Nc3cc(Cl)c(OC)c(Cl)c3)c(C#N)cnc2cc1OCCCN1CCN(C)CC1` were, in that order, 267 nM and 1640 nM.
The like results for `O=C(Nc1cc(Nc2ncccc2-c2ncnc3nc[nH]c23)ccc1F)c1cc(C(F)(F)F)cc(C(F)(F)F)c1` were, in that order, 3000 nM and 8360 nM.
As for `O=C1Nc2ccccc2/C1=C1\CCc2cc(O)ccc21`, the GI50 is 3330 nM and the TGI is over 21800 nM.
The like results for `CC(C)(C)[Si](C)(C)OC1[C@@H](CNC(=O)NC(=O)CCl)O[C@@H](n2cnc3c(N)ncnc32)[C@H]1O[Si](C)(C)C(C)(C)C` (some centres not stated) were, in that order, 802 nM and 1710 nM.
The like results for `CC(C)[C@H](O)C(=O)N[C@@H](C)C(=O)N[C@@H]1C(=O)N(C)CCc2ccccc21` were, in that order, over 100000 nM and over 100000 nM.
On to `ClCCN(CCCl)c1ccc(CNc2ccccc2)cc1`, for which the GI50 was 2140 nM and the TGI is 23400 nM.
As to `CCCCCCCCCCNC(=O)CI`, the GI50 is 2140 nM and the TGI was found to be 4860 nM.
The like results for `c1ccc2c(c1)[nH]c1c2cc[n+]2cc3c(cc12)CCCC3` were, in that order, 1120 nM and 2980 nM.
